Test results taken from patent US11970493B2, “Autotaxin inhibitor compounds” (ILDONG PHARMACEUTICAL CO., LTD., priority 2020, dated 2024).
pIC50: −log10 of the molar value. Where a name gives a salt, the structure may show the parent alone.

Experiments:
[1] = biological target: hATX/ENPP2 (Homo sapiens, UniProt Q13822); assay: hATX/ENPP2 biochemical assay using 16:0-LPC as substrate (Amplex Red/choline oxidase/HRP fluorescence); details: hENPP2 2.5 nM, LPC (16:0) substrate
Method in brief: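 Enzyme preincubated with compounds 15 min at room temperature in 50 mM Tris-HCl pH 8.0, 140 mM NaCl, 5 mM CaCl2, 0.01% Triton X-100. Reaction started with 80 μM LPC (16:0) stock plus Amplex Red/choline oxidase/HRP mix; fluorescence (ex 530/em 590 nm) read kinetically. IC50 from slope between 60 and 70 min.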

[2] = test system: LPA 18:2 level in mouse plasma; assay: In vitro LPA assay, reduction of LPA 18:2 level in mouse plasma (LC-MS/MS); assay type: biochemical; details: 2 hr at 37° C., LPA 18:2 reduction
Method: (§1) Autotaxin (ATX) plays an important role in lysophosphatidic acid (LPA) signaling. An in vitro LPA assay was conducted to determine IC50 values of the test compounds on reduction of LPA 18:2 level in rat or mouse plasma. This example describes the assay data (IC50 value ranges) of exemplary compounds from LPA assays using mouse and rat plasma. Compound GPLG-1690 was assayed as a reference compound.
(§2) The 10 mM DMSO stock solutions of test compounds and 4-fold serial dilutions of the test compounds were prepared at various concentrations. The diluted solutions of the compounds were diluted with 1×PBS (pH 7.5) buffer. 38 μL of rat or mouse plasma samples were mixed with 2 μL of the diluted solutions of the compounds or 2% DMSO solutions in 96-well plate (final 0.1% DMSO). After incubating for 2 hr at 37° C., 120 μL MeOH containing IS (250 ng/mL of LPA 17:0) was added to each well. Mixture was vortexed for 1 min, and then centrifuged for 30 min (4000 rpm, 4° C.). 100 μL supernatant was transferred to a 96-well plate containing 100 μL pure water and the plate was shaken for 10 min. 5 μL supernatant was injected into LC-MS/MS system. No calibration curve will be prepared for LPA 18:2 and all quantifications were performed based on peak area ratios (LPA 18:2/LPA 17:0). For each concentration of compound LPA data were expressed as percentage of reduction (% reduction) using the formula. 100−[((LPA ratio-LPA ratio in control sample after 0 hr incubation)/(LPA ratio in control sample after 2 hr incubation—LPA ratio in control sample after 0 hr incubation))*100]. Data

[3] = test system: LPA 18:2 level in rat plasma; assay: In vitro LPA assay, reduction of LPA 18:2 level in rat plasma (LC-MS/MS); assay type: biochemical; details: 2 hr at 37° C., LPA 18:2 reduction
Method: as §1, §2

[4] = Mouse PK study (IV and PO); assay type: in vivo; details: male, C57BL/6, mouse, plasma, male C57BL/6 mice; for AUC(0-inf): IV 2 mg/kg and PO 10 mg/kg study; for bioavailability / Cmax: po, 10 mg/kg; for bioavailability: IV 2 mg/kg and PO 10 mg/kg, read-out: F % (bioavailability); for Cmax: PO group 10 mg/kg
Method: This example describes the pharmacokinetic (PK) data obtained for various compounds of the present disclosure, from studies using mice. The following PK parameters were calculated: • Bioavailability (F %) were calculated using the linear/log trapezoidal rule • Peak plasma concentrations (Cmax (ng/mL)) were taken directly from the plasma concentration vs. time profiles for the PO group • Area under the curve e.g., the area under the concentration curve from time 0 to infinity (AUC0-inf(ng*h/mL)). Experimental Procedures
After intravenous (IV) and oral (PO) administration at 2 mg/kg and 10 mg/kg to male C57BL/6 mice, respectively, the blood samples were collected at the designed sampling time points. All blood samples were transferred into pre-chilled commercial polyethylene microcentrifuge tubes containing K2-EDTA as an anticoagulant. Samples were processed for plasma by centrifugation. Plasma samples was transferred into polypropylene tubes pre-chilled on dry ice and then quickly frozen over dry ice and kept at −70±10° C. until LC-MS/MS analysis. Mice plasma samples were analyzed using qualified bioanalytical methods based on protein precipitation followed by LC-MS/MS analysis. Individual plasma concentration data of each compound was subjected to noncompartmental pharmacokinetic analysis using Phoenix WinNonlin™. Nominal doses were used for pharmacokinetic parameters calculation.

| SMILES | pIC50 [1] | pIC50 [2] | pIC50 [3] | AUC(0-inf) [4] | bioavailability [4] | Cmax [4] |
| --- | --- | --- | --- | --- | --- | --- |
| CCc1nc2ccc(-c3cnc(N4CCN(C(=O)C5(CO)CC5)CC4)nc3)cn2c1N(C)c1nc(-c2ccc(F)cc2)c(C#N)s1 [Compound 10, 2-((2-ethyl-6-(2-(4-(1-(hydroxymethyl)cyclopropane-1-carbonyl)piperazin-1-yl)pyrimidin-5-yl)imidazo[1,2-a]pyridin-3-yl)(methyl)amino)-4-(4-fluorophenyl)thiazole-5-carbonitrile] | ≥ 7.70 | 6.10 to 6.70 | ≥ 6.70 | 26700 ng·h/mL | 28% | 4950 ng/mL |
| CCc1nc2c(C)cc(N3CCN(CC(=O)N4CC(O)C4)CC3)cn2c1N(C)c1nc(-c2ccc(F)cc2)c(C#N)s1 [GPLG-1690, Ziritaxestat, reference compound] | – | < 6.10 | < 6.10 | – | – | – |
| CCc1nc2ccc(-c3ccc(N4CC(NC5(CO)CC5)C4)nc3)cn2c1N(C)c1nc(-c2ccc(F)cc2)c(C#N)s1 [Compound 109, 2-((2-ethyl-6-(6-(3-((1-(hydroxymethyl)cyclopropyl)amino)azetidin-1-yl)pyridin-3-yl)imidazo[1,2-a]pyridin-3-yl)(methyl)amino)-4-(4-fluorophenyl)thiazole-5-carbonitrile] | 6.70 to 7.70 | 6.10 to 6.70 | ≥ 6.70 | – | – | – |
| CCc1nc2ccc(-c3cnc(N4CC(C(=O)N5CCC5)C4)nc3)cn2c1N(C)c1nc(-c2ccc(F)cc2)c(C#N)s1 [Compound 125, 2-((6-(2-(3-(azetidine-1-carbonyl)azetidin-1-yl)pyrimidin-5-yl)-2-ethylimidazo[1,2-a]pyridin-3-yl)(methyl)amino)-4-(4-fluorophenyl)thiazole-5-carbonitrile] | 6.70 to 7.70 | 6.10 to 6.70 | ≥ 6.70 | – | – | – |
| CCc1nc2ccc(-c3cnc(N4CCN(C(=O)N5CCCC5)CC4)nc3)cn2c1N(C)c1nc(-c2ccc(F)cc2)c(C#N)s1 [Compound 42, 2-((2-ethyl-6-(2-(4-(pyrrolidine-1-carbonyl)piperazin-1-yl)pyrimidin-5-yl)imidazo[1,2-a]pyridin-3-yl)(methyl)amino)-4-(4-fluorophenyl)thiazole-5-carbonitrile] | ≥ 7.70 | 6.10 to 6.70 | 6.10 to 6.70 | – | – | – |
| CCc1nc2ccc(-c3cnc(N4CCN(CC(=O)N5CC[C@H](O)C5)CC4)nc3)cn2c1N(C)c1nc(-c2ccc(F)cc2)c(C#N)s1 [46 (hydrochloride salt), (S)-2-((2-ethyl-6-(2-(4-(2-(3-hydroxypyrrolidin-1-yl)-2-oxoethyl)piperazin-1-yl)pyrimidin-5-yl)imidazo[1,2-a]pyridin-3-yl)(methyl)amino)-4-(4-fluorophenyl)thiazole-5-carbonitrile] | – | 6.10 to 6.70 | 6.10 to 6.70 | – | – | – |
| CCc1nc2ccc(-c3cnc(N4CCN(CC(=O)N5CC[C@@H](O)C5)CC4)nc3)cn2c1N(C)c1nc(-c2ccc(F)cc2)c(C#N)s1 [45 (hydrochloride salt), (R)-2-((2-ethyl-6-(2-(4-(2-(3-hydroxypyrrolidin-1-yl)-2-oxoethyl)piperazin-1-yl)pyrimidin-5-yl)imidazo[1,2-a]pyridin-3-yl)(methyl)amino)-4-(4-fluorophenyl)thiazole-5-carbonitrile] | – | 6.10 to 6.70 | ≥ 6.70 | – | – | – |
| CCc1nc2ccc(-c3cnc(N4CCN(C(=O)C5CN(C)C5)CC4)nc3)cn2c1N(C)c1nc(-c2ccc(F)cc2)c(C#N)s1 [79 (hydrochloride salt)] | ≥ 7.70 | 6.10 to 6.70 | ≥ 6.70 | – | – | – |

More lines, now with the values ahead:

| pIC50 [1] | pIC50 [2] | pIC50 [3] | AUC(0-inf) [4] | bioavailability [4] | Cmax [4] | SMILES |
| --- | --- | --- | --- | --- | --- | --- |
| ≥ 7.70 | 6.10 to 6.70 | 6.10 to 6.70 | 38000 ng·h/mL | 28.4% | 7040 ng/mL | CCc1nc2ccc(-c3ccc(N4CCC(C(=O)N5CC[C@@H](O)C5)CC4)nc3)cn2c1N(C)c1nc(-c2ccc(F)cc2)c(C#N)s1 [Compound 114, (R)-2-((2-ethyl-6-(6-(4-(3-hydroxypyrrolidine-1-carbonyl)piperidin-1-yl)pyridin-3-yl)imidazo[1,2-a]pyridin-3-yl)(methyl)amino)-4-(4-fluorophenyl)thiazole-5-carbonitrile] |
| 6.70 to 7.70 | 6.10 to 6.70 | 6.10 to 6.70 | – | – | – | CCc1nc2ccc(-c3ccc(C(=O)N4CCCC4)nc3)cn2c1N(C)c1nc(-c2ccc(F)cc2)c(C#N)s1 [Compound 87, 2-((2-ethyl-6-(6-(pyrrolidine-1-carbonyl)pyridin-3-yl)imidazo[1,2-a]pyridin-3-yl)(methyl)amino)-4-(4-fluorophenyl)thiazole-5-carbonitrile] |
| – | < 6.10 | 6.10 to 6.70 | – | – | – | CCc1nc2ccc(-c3ccc(N4CCN(C(=O)C5CN(C)C5)CC4)nc3)cn2c1N(C)c1nc(-c2ccc(F)cc2)c(C#N)s1 [Compound 86 hydrochloride, 2-((2-ethyl-6-(6-(4-(1-methylazetidine-3-carbonyl)piperazin-1-yl)pyridin-3-yl)imidazo[1,2-a]pyridin-3-yl)(methyl)amino)-4-(4-fluorophenyl)thiazole-5-carbonitrile hydrochloride] |
| 6.70 to 7.70 | 6.10 to 6.70 | ≥ 6.70 | – | – | – | CCc1nc2ccc(-c3ccc(N4CCN(C(=O)N5CCCC5)CC4)nc3)cn2c1N(C)c1nc(-c2ccc(F)cc2)c(C#N)s1 [Compound 85, 2-((2-ethyl-6-(6-(4-(pyrrolidine-1-carbonyl)piperazin-1-yl)pyridin-3-yl)imidazo[1,2-a]pyridin-3-yl)(methyl)amino)-4-(4-fluorophenyl) thiazole-5-carbonitrile] |
| ≥ 7.70 | 6.10 to 6.70 | ≥ 6.70 | – | – | – | CCc1nc2ccc(-c3ccc(N4CCN(C(=O)C5(CO)CC5)CC4)nc3)cn2c1N(C)c1nc(-c2ccc(F)cc2)c(C#N)s1 [Compound 93, 2-((2-ethyl-6-(6-(4-(1-(hydroxylmethyl)cyclopropane-1-carbonyl)piperazin-1-yl)pyridin-3-yl)imidazo[1,2-a]pyridin-3-yl) (methyl)amino)-4-(4-fluorophenyl)thiazole-5-carbonitrile] |
| ≥ 7.70 | 6.10 to 6.70 | ≥ 6.70 | – | – | – | CCc1nc2ccc(-c3cnc(N4CCC(C(=O)N5CCOCC5)CC4)nc3)cn2c1N(C)c1nc(-c2ccc(F)cc2)c(C#N)s1 [Compound 127, 2-((2-ethyl-6-(2-(4-(morpholine-4-carbonyl)piperidin-1-yl)pyrimidin-5-yl)imidazo [1,2-a]pyridin-3-yl)(methyl)amino)-4-(4-fluorophenyl)thiazole-5-carbonitrile] |
| ≥ 7.70 | 6.10 to 6.70 | ≥ 6.70 | – | – | – | CCc1nc2ccc(-c3ccc(N4CCC(C(=O)N5CCNCC5)CC4)nc3)cn2c1N(C)c1nc(-c2ccc(F)cc2)c(C#N)s1 [Compound 118, 2-((2-ethyl-6-(6-(4-(piperazine-1-carbonyl)piperidin-1-yl)pyridin-3-yl)imidazo[1,2-a]pyridin-3-yl) (methyl)amino)-4-(4-fluorophenyl)thiazole-5-carbonitrile] |
| 6.70 to 7.70 | 6.10 to 6.70 | ≥ 6.70 | – | – | – | CCc1nc2ccc(-c3ccc(N4CCC(C(=O)N5CCCCC5)CC4)nc3)cn2c1N(C)c1nc(-c2ccc(F)cc2)c(C#N)s1 [Compound 121, 2-((2-ethyl-6-(6-(4-(piperidine-1-carbonyl)piperidin-1-yl)pyridin-3-yl)imidazo[1,2-a]pyridin-3-yl)(methyl)amino)-4-(4-fluorophenyl)thiazole-5-carbonitrile] |
